The source of these data is patent US9243002B2, “Tetracyclic heterocycle compounds and methods of use thereof for the treatment of hepatitis C” (priority 2013, dated 2016).

Assay [1] concerns HCV genotype 1b replicon. The assay is described as follows: HCV replicon assay, genotype 1b (cell ELISA for NS3/4A). Type of assay: cell-based, hepatitis C virus. Here is the method: (§1) Measurement of inhibition by compounds was performed using the HCV replicon system. Several different replicons encoding different HCV genotypes or mutations were used. In addition, potency measurements were made using different formats of the replicon assay, including different ways of measurements and different plating formats. See Jan M. Vrolijk et al., A replicons-based bioassay for the measurement of interferons in patients with chronic hepatitis C, 110 J. VIROLOGICAL METHODS 201 (2003); Steven S. Carroll et al., Inhibition of Hepatitis C Virus RNA Replication by 2′-Modified Nucleoside Analogs, 278 (14) J. BIOLOGICAL CHEMISTRY 11979 (2003). However, the underlying principles are common to all of these determinations, and are outlined below.
(§2) Stable neomycin phosphotransferase encoding replicons-harboring cell lines were used, so all cell lines were maintained under G418 selection prior to the assay. Potency was deteremined using a cell ELISA assay with an antibody to the replicons encoded NS3/4a protease. See Caterina Trozzi et al., In Vitro Selection and Characterization of Hepatitis C Virus Serine Protease Variants Resistant to an Active-Site Peptide Inhibitor, 77 (6) J. Virol. 3669 (2003). To initiate an assay, replicon cells were plated in the presence of a dilution series of test compound in the absence of G418. Typically, the assays were performed in a 96-well plate formate for manual operation, or a 384-well plate format for automated assay. Replicon cells and compound were incubated for 96 hours. At the end of the assay, cells were washed free of media and compound, and the cells were then lysed. RNA was quantified indirectly through detection of replicon-encoded NS3/4A protein levels, through an ELISA-based assay with an antibody specific for NS3/4A. IC50 determinations were calculated as a percentage of a DMSO control by fitting the data to a four-parameter fit function and the data obtained for genotypes 1a and 1b using this method is provided in the table below.
Background: Replicon systems follow genome replication, usually without infectious particles.

Assay [2] concerns HCV genotype 1a replicon. The experiment in a line: HCV replicon assay, genotype 1a (cell ELISA for NS3/4A). It is filed as cell-based, hepatitis C virus. Here is the method:
as §1, §2

Setting [3] is: Hepatitis C virus, 96 h, read-out: 1b IC50 (nM), genotype 1b replicon cells, 96 hours incubation, NS3/4A ELISA.
The mark [4] stands for this setting: Hepatitis C virus, 96 h, read-out: 1a IC50 (nM), genotype 1a replicon cells, 96 hours incubation, NS3/4A ELISA.
Where [5] appears, read: read-out: 1b IC50, genotype 1b replicon cells, 96 hours incubation, NS3/4A ELISA.
[6] abbreviates: read-out: 1a IC50, genotype 1a replicon cells, 96 hours incubation, NS3/4A ELISA.

Molecules are shown by their SMILES. Like-named read-outs stand apart in the source and are kept apart here.

In the case of `CNC(=O)c1c(-c2ccc(F)cc2)oc2cc(N(C)S(C)(=O)=O)c(-c3ccc4c(n3)-c3cc5c(F)cccc5n3CC4F)cc12` (stereo not drawn) [Example 89, 5-(5,11-difluoro-5,6-dihydroindolo[1,2-h][1,7]naphthyridin-2-yl)-2-(4-fluorophenyl)-N-methyl-6-(N-methylmethylsulfonamido)benzofuran-3-carboxamide], the IC50 turned out to be 5.49 nM in assay [1] (setting [3]) and 2.12 nM in assay [2] (setting [4]).
The like results for `CNC(=O)c1c(-c2ccc(F)nc2)oc2cc(N(C)S(C)(=O)=O)c(-c3ccc4c(n3)-c3cc5c(F)cccc5n3CC4)cc12` [Example 15] were, in that order, 5.09 nM and 3.41 nM.
Take `CNC(=O)c1c(-c2ccc(OCC(F)(F)F)nc2)oc2cc(N(C)S(C)(=O)=O)c(-c3ccc4c(n3)-c3cc5c(F)cccc5n3CC4)cc12` [Example 4]: the IC50 was found to be 7.3 nM in assay [1] (setting [3]) and 6.99 nM in assay [2] (setting [4]).
In the case of `CNC(=O)c1c(-c2ccc(F)cc2)oc2cc(N(C)S(C)(=O)=O)c(-c3ccc4c(n3)-c3cc5c(F)cccc5n3C(CS(C)(=O)=O)C4)cc12` (single isomer, unassigned) [Example 57, (S or R)-5-(11-fluoro-6-((methylsulfonyl)methyl)-5,6-dihydroindolo[1,2-h][1,7]naphthyridin-2-yl)-2-(4-fluorophenyl)-N-methyl-6-(N-methylmethylsulfonamido)benzofuran-3-carboxamide], the IC50 in assay [1] (setting [5]) stood at 3.39 nM; in assay [2] (setting [6]), 8.16 nM.
Regarding `CNC(=O)c1c(-c2ccc(F)cc2)oc2cc(N(C)S(C)(=O)=O)c(-c3cc4c(cn3)C(C)Cn3c-4cc4c(F)cccc43)cc12` (single isomer, unassigned) [Example 60, (R or S)-5-(11-fluoro-5-methyl-5,6-dihydroindolo[2,1-a][2,6]naphthyridin-2-yl)-2-(4-fluorophenyl)-N-methyl-6-(N-methylmethylsulfonamido)benzofuran-3-carboxamide], the IC50 came to 10.1 nM in assay [1] (setting [3]) and 5 nM in assay [2] (setting [6]).
Turning to `CNC(=O)c1c(-c2ccc(OC3CC3)nc2)oc2cc(N(C)S(C)(=O)=O)c(-c3ccc4c(n3)-c3cc5c(F)cccc5n3CC4)cc12` [Example 5], the IC50 was determined as 2.3 nM in assay [1] (setting [3]) and 3.86 nM in assay [2] (setting [4]).
Taken in the same sequence, the figures for `CNC(=O)c1c(-c2ccc(F)cc2)oc2cc(N(C)S(C)(=O)=O)c(-c3ccc4c(n3)-c3cc5c(F)cccc5n3CC4C)cc12` (stereo not drawn) [Example 62] were 2.55 nM and 2.69 nM.
Taken in the same sequence, the figures for `CNC(=O)c1c(-c2nocc2C)oc2cc(N(C)S(C)(=O)=O)c(-c3ccc4c(n3)-c3cc5c(F)cccc5n3CC4)cc12` [Example 35, 5-(11-fluoro-5,6-dihydroindolo[1,2-h][1,7]naphthyridin-2-yl)-N-methyl-2-(4-methylisoxazol-3-yl)-6-(N-methylmethylsulfonamido)benzofuran-3-carboxamide] were 5.19 nM and 3.28 nM.
The like results for `CNC(=O)c1c(-c2ccc(F)cc2)oc2cc(N(C)S(C)(=O)=O)c(-c3ccc4c(n3)-c3cc5c(F)cccc5n3CC4)cc12` [Example 85, 5-(11-fluoro-5,6-dihydroindolo[1,2-h][1,7]naphthyridin-2-yl)-2-(4-fluorophenyl)-N-methyl-6-(N-methylmethylsulfonamido)benzofuran-3-carboxamide] were, in that order, 3.29 nM and 2.99 nM.
`CNC(=O)c1c(-c2ccc(F)cc2)oc2cc(N(C)S(C)(=O)=O)c(-c3cnc4c(c3)-c3cc5c(F)cccc5n3CC4)cc12` [Example 43, 5-(11-fluoro-5,6-dihydroindolo[2,1-f][1,6]naphthyridin-2-yl)-2-(4-fluorophenyl)-N-methyl-6-(N-methylmethylsulfonamido)benzofuran-3-carboxamide]: the IC50 is 3.7 nM in assay [1] (setting [3]) and 1.74 nM in assay [2] (setting [4]).
`CNC(=O)c1c(-c2ccc(F)cc2)oc2cc(N(C)S(C)(=O)=O)c(-c3cc4c(cn3)C(C)Cn3c-4cc4c(F)cccc43)cc12` (single isomer, unassigned) [Example 61, (S or R)-5-(11-fluoro-5-methyl-5,6-dihydroindolo[2,1-a][2,6]naphthyridin-2-yl)-2-(4-fluorophenyl)-N-methyl-6-(N-methylmethylsulfonamido)benzofuran-3-carboxamide]: the IC50 in assay [1] (setting [5]) is 7.8 nM; in assay [2] (setting [6]) it was 2.27 nM.
Take `CCc1ccc(-c2oc3cc(N(C)S(C)(=O)=O)c(-c4ccc5c(n4)-c4cc6c(F)cccc6n4CC5)cc3c2C(=O)NC)cn1` [Example 9]: the IC50 in assay [1] (setting [3]) amounted to 31.2 nM; in assay [2] (setting [4]), 38.2 nM.
For the compound `CNC(=O)c1c(-c2ccc(F)cc2)oc2cc(N(C)S(C)(=O)=O)c(-c3ccc4c(n3)-c3cc5c(F)cccc5n3C(CN3CC(F)C3)C4)cc12` (stereo not drawn) [Example 90, 5-(11-fluoro-6-((3-fluoroazetidin-1-yl)methyl)-5,6-dihydroindolo[1,2-h][1,7]naphthyridin-2-yl)-2-(4-fluorophenyl)-N-methyl-6-(N-methylmethylsulfonamido)benzofuran-3-carboxamide], the IC50 in assay [1] (setting [3]) was 2.79 nM; in assay [2] (setting [4]), 7.23 nM.
The like results for `CNC(=O)c1c(-c2cnn3c2CCCC3)oc2cc(N(C)S(C)(=O)=O)c(-c3ccc4c(n3)-c3cc5c(F)cccc5n3CC4)cc12` [Example 21] were, in that order, 34.3 nM and 149 nM.
The like results for `CCn1cc(-c2oc3cc(N(C)S(C)(=O)=O)c(-c4ccc5c(n4)-c4cc6c(F)cccc6n4CC5)cc3c2C(=O)NC)cn1` [Example 27] were, in that order, 11.1 nM and 9.13 nM.
Turning to `CNC(=O)c1c(-c2ccc(F)cc2F)oc2cc(N(C)S(C)(=O)=O)c(-c3ccc4c(n3)-c3cc5c(F)cccc5n3C(CS(C)(=O)=O)C4)cc12` (stereo not drawn) [Example 59], the values for the IC50 in assay [1] (setting [5]) and in assay [2] (setting [6]) were 2.9 nM and 5.45 nM, respectively.
Take `CNC(=O)c1c(-c2ccc(F)cc2)oc2cc(N(C)S(C)(=O)=O)c(-c3cc4c(cn3)CC(C)n3c-4cc4c(F)cccc43)cc12` (single isomer, unassigned) [Example 42, (S or R)-5-(11-fluoro-6-methyl-5,6-dihydroindolo[2,1-a][2,6]naphthyridin-2-yl)-2-(4-fluorophenyl)-N-methyl-6-(N-methylmethylsulfonamido)benzofuran-3-carboxamide]: the IC50 in assay [1] (setting [5]) came out at 5.47 nM; in assay [2] (setting [6]) it was 3.1 nM.
Consider `CNC(=O)c1c(-c2ccc(F)cc2)oc2cc(N(C)S(C)(=O)=O)c(-c3ccc4ccn5c6ccccc6c(C)c5c4n3)cc12` [Example 79, 2-(4-fluorophenyl)-N-methyl-5-(12-methylindolo[1,2-h][1,7]naphthyridin-2-yl)-6-(N-methylmethylsulfonamido)benzofuran-3-carboxamide], for which the IC50 in assay [1] (setting [3]) came to 77.3 nM; in assay [2] (setting [4]) it was 93.8 nM.
The like results for `CNC(=O)c1c(-c2ccc(F)cc2F)oc2cc(N(C)S(C)(=O)=O)c(-c3ccc4c(n3)-c3cc5c(F)cccc5n3C(CO)C4)cc12` (single isomer, unassigned) [Example 51, (S or R)-2-(2,4-difluorophenyl)-5-(11-fluoro-6-(hydroxymethyl)-5,6-dihydroindolo[1,2-h][1,7]naphthyridin-2-yl)-N-methyl-6-(N-methylmethylsulfonamido)benzofuran-3-carboxamide] were, in that order, 3.42 nM and 4.49 nM.
As to `CNC(=O)c1c(-c2ccc(F)cc2)oc2cc(N(C)S(C)(=O)=O)c(-c3ccc4c(n3)-c3cc5c(F)cccc5n3C(CO)C4)cc12` (stereo not drawn) [Example 54], the IC50 in assay [1] (setting [5]) stood at 2.25 nM; in assay [2] (setting [6]), 1.56 nM.
Regarding `CNC(=O)c1c(-c2ccc(F)cc2F)oc2cc(N(C)S(C)(=O)=O)c(-c3ccc4c(n3)-c3cc5c(F)cccc5n3C(CS(C)(=O)=O)C4)cc12` (stereo not drawn) [Example 58], the results for the IC50 in assay [1] (setting [3]) and in assay [2] (setting [6]) were 1.71 nM and 1.52 nM, respectively.
`CNC(=O)c1c(-c2cnn(-c3ccccc3)c2)oc2cc(N(C)S(C)(=O)=O)c(-c3ccc4c(n3)-c3cc5c(F)cccc5n3CC4)cc12` [Example 18]: the IC50 in assay [1] (setting [3]) was found to be 296 nM; in assay [2] (setting [4]), 5480 nM.
On to `CNC(=O)c1c(-c2ccc(C)nc2)oc2cc(N(C)S(C)(=O)=O)c(-c3ccc4c(n3)-c3cc5c(F)cccc5n3C(CCN3CC(F)C3)C4)cc12` (stereo not drawn) [Example 66, 5-(11-fluoro-6-(2-(3-fluoroazetidin-1-yl)ethyl)-5,6-dihydroindolo[1,2-h][1,7]naphthyridin-2-yl)-N-methyl-6-(N-methylmethylsulfonamido)-2-(6-methylpyridin-3-yl)benzofuran-3-carboxamide], for which the IC50 in assay [1] (setting [5]) was 11.4 nM; in assay [2] (setting [6]), 13 nM.
Regarding `CNC(=O)c1c(-c2ccc(F)cc2)oc2cc(N(C)S(C)(=O)=O)c(-c3ccc4ccn5c6cccc(C#N)c6cc5c4n3)cc12` [Example 83], the IC50 in assay [1] (setting [3]) is 3.44 nM; in assay [2] (setting [4]), 1.49 nM.
